# Experiments:
# [1] = target: T1, MLLT1 (Homo sapiens, UniProt Q03111); assay: MLLT1 degradation assay in MV4-11 cells (JESS chemiluminescent detection), three concentrations, 24 h; format: cell-based; settings: with respect to DMSO control
# T1 construct: host or cells: MV4-11
# T1 sequence (Q03111 1-559): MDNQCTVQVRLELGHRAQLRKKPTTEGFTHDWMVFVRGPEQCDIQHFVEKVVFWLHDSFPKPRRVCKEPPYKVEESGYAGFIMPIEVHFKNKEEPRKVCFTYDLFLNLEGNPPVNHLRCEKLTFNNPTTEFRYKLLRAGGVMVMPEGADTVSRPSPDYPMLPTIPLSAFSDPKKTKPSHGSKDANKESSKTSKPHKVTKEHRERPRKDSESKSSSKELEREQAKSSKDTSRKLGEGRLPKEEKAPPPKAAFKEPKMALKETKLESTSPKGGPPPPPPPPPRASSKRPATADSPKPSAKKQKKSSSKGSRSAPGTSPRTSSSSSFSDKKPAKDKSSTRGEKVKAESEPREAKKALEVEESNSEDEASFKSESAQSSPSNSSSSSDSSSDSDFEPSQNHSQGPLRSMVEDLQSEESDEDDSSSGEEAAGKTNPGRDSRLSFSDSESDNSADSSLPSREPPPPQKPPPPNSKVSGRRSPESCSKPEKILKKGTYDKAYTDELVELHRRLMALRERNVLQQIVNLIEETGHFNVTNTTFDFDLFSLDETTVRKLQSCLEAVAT
# In short: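 MV4-11 cells treated 24 h at 37° C, 5% CO2 with 1000, 100 and 10 nM compound (0.1% DMSO final). MLLT1 quantified by automated capillary chemiluminescent immunodetection; band peak area expressed as % degradation relative to DMSO control.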
# [2] = target: T2, MLLT3 (Mus musculus, UniProt A2AM29); assay: MLLT3 degradation assay in NIH/3T3 cells (JESS), dose response, 5 h; format: cell-based
# T2 construct: host or cells: NIH/3T3
# T2 sequence (A2AM29 1-569): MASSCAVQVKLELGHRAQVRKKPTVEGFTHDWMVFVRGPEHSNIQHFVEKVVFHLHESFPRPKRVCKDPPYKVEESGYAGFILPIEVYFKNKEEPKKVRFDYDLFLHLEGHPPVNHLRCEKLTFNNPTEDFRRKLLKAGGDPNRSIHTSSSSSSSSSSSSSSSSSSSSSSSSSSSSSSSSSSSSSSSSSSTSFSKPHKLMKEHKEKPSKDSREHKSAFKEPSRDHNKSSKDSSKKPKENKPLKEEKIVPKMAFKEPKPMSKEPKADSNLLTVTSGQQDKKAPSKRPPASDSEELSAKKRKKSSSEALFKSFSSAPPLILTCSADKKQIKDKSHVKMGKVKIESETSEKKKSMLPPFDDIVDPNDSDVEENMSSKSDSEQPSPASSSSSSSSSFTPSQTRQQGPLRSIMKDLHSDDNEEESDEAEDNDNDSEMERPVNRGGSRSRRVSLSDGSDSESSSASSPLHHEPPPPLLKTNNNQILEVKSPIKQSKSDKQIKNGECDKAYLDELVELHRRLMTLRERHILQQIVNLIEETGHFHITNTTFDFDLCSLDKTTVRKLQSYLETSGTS
# Description: MLLT3 degradation efficacy of compounds was tested in an automated chemiluminescent detection system (JESS, Cat #004-650). NIH/3T3 (#CRL-1658, ATCC) were seeded at a density of 0.5 million cells/well in a cell culture treated 6-well cell culture plate in 2 mL of complete medium (DMEM+10% FBS+IX Penicillin-Streptomycin) and incubated at 37° C., 5% CO2. The next day, 10 mM DMSO stocks were prepared, and cells were treated with eight concentrations of test compounds, starting from 100 nM, 5-fold dilution, at a final DMSO concentration of 0.1% and incubated for 5 h at 37° C., 5% CO2. Post incubation, cells were washed with HBSS and lysed in 70 μL of RIPA buffer supplemented with Protease inhibitors (sc-24948; Santa Cruz). Later, protein estimation was done using BCA protein assay kit (23228; Pierce). 4 μg protein lysate (4 μL of 1 μg/μL lysate) was loaded into each well of the JESS cartridge (SM-W004; Bio-techne) and the JESS run was performed using 1:200 dilution of anti-mouse MLLT3 antibody (#47577; CST) and 1:800 dilution of anti-human GAPDH antibody (2118; Cell signaling technology) with anti-rabbit secondary detection module (DM-001; Bio-Techne). Post run, data was analysed using “Compass for SW” software for chemiluminescent detection. Peak fit was done using “dropped lines” method. […]
smiles,measurement,setting,value
"CN1CCC[C@@H]1c1cc2cnc(NC(=O)c3ccc(CCCC#Cc4cccc5c4CN(C4CCC(=O)NC4=O)C5=O)cc3)cc2[nH]1 (stereo partly drawn) [Example 55, 4-(5-(2-(2,6-dioxopiperidin-3-yl)-1-oxoisoindolin-4-yl)pent-4-yn-1-yl)-N-(2-((R)-1-methylpyrrolidin-2-yl)-1H-pyrrolo[3,2-c]pyridin-6-yl)benzamide]",MLLT1% Degradation @ 0.01 μM,[1]; 0.01 μM,A (Category A: A ≥ 75% degradation)
same,MLLT1% Degradation @ 0.1 μM,[1]; 0.1 μM,A (Category A: A ≥ 75% degradation)
same,MLLT1% Degradation @ 1 μM,[1]; 1 μM,A (Category A: A ≥ 75% degradation)
same,DC50,[2],0.8 nM
same,Dmax,"[2]; NIH3T3, maximum % degradation observed",92%
